Laboratory results as given in patent US20260108602A1, “METHODS AND SYSTEMS FOR IMPROVING ANTI-CANCER THERAPIES” (Osasuna Therapeutics SA, priority 2023, published 2026).

Key:
[1] = test system: Dbi^+/+ and Dbi^−/− HCC cells; assay: CCK-8 viability assay of primary HCC cells treated with ferroptosis inducers; assay type: cell-based, mouse; details: ferroptosis inducer combined with Dbi knockout; normalized to respective Dbi^+/+ and Dbi^−/− vehicle controls
Procedure: (FIG. 26A-FIG. 26D). Groups receiving ferroptosis inducers were normalized to their respective Dbi^+/+ and Dbi^−/− vehicle (Veh) treated control groups.
Proliferation assays. CCK-8 assays were performed with a commercial kit. For colony formation assays, HEPG-2 (NC, SH1, SH2, and SH3, 1000 cells/well), HUH-7 (NC, SH1, SH2, and SH3, 1000 cells/well) and Hep55.1C (NC, SH1, SH2, and SH3, 500 cells/well) cancer cells were seeded into 6-well plates in 2 mL medium with 10% FBS. The medium was changed every 3 days until control (NC) wells approached confluency, within 7-14 days. After gently washed twice with PBS, colonies were fixed with 4% paraformaldehyde for 30 min and stained with 0.2% crystal violet for 30 min at room temperature. The colony number (colonies >0.3 mm) was counted with isoftware. All experiments were performed in triplicates.
Six-well plates were coated with 2% FBS/PBS+0.1% laminin. HCC tumors were isolated from NASH-driven mouse model (WD+D-fructose+D-glucose in water+CCl4 administered to DBI^+/+ or DBI^−/− mice) and washed twice with ice-cold PBS. The tumor tissues were transferred to 10 cm plates, minced completely with a razor blade and then transferred to 15 mL falcon tubes. Ten mL 2 mg/mL collagenase dispase solution was added, the cells were incubated rotating for 30 min at 37° C. and were filtered through 100 μm meshes into 50 mL falcon tubes, before addition of 10 mL 2% FBS/PBS to wash the tissues. The samples were then filtered sequentially through 70 μm and 40 μm strainers, brought up to 15 mL volume and centrifuged again (room temperature (RT), 1000 rpm, 2 min). The cells were then resuspended in 5 mL of 1×red blood cell (RBC) lysis buffer, incubated on ice for 10 min before addition of 5 mL 2% FBS/PBS, followed by spinning (RT, 1000 rpm, 2 min). The washing step was repeated 2 times, and the cells were resuspended in culture medium (500 mL DMEM+10% FBS+1×ITS+20 μl EGF (1 μg/μl)+20 μl IGFII (0.2 μg/μl)), before seeding into 6-well plates.

[2] = test system: E0771 breast cancer cells; assay: Subcutaneous E0771 breast cancer model with anti-PD1 immunotherapy
Procedure: E0771—For the establishment of syngeneic solid tumors, C57BL/6J mice (8-weeks-old female) were injected subcutaneously (s.c.) with 5×10^5 wild type E0771 in the right lower quadrant of the abdomen alongside of the mammary gland (close to the orthotopic site). Approximately 7 days after injection, tumor growth was monitored with an electronic caliper and mice were assigned to different groups. From day 8, mice were treated with a neutralizing anti-DBI monoclonal antibody (5 mg/kg) or its isotype (IgG2A, 5 mg/kg) every two days. At the same time, free corticosterone (Sigma-Aldrich) was added to the drinking water (0.1 mg/ml; water/ethanol 0.66%). Anti-PD1 monoclonal antibody (αPD1; 10 mg/kg) was injected at days 12, 15, 18 and 21. Tumor growth was monitored routinely with an electronic caliper.
For tumor growth experiments, longitudinal analyses were performed by linear mixed effect modeling of tumor sizes. […]
C57BL/6J mice were inoculated subcutaneously (s.c.) with syngeneic E0771 breast cancer cells. Six days later treatment of corticosterone (CORT or as a control with vehicle only, 0.66% ethanol, which was administered in the drinking water) and anti-ACBP/DBI mAb (or the isotype control mAb, both injected i.p. three times per week) was initiated and tumor growth was monitored over several weeks. […]

[3] = test system: MCA205 fibrosarcoma cells; assay: Anti-tumor vaccination assay (MTX-treated MCA205 cells, rechallenge with live cells); assay type: in vivo, C57BL/6J mice; details: CORT in drinking water + vaccination with MTX-treated MCA205 cells
Procedure: Wild-type MCA205 cells were treated with MTX (4 μM) for 24 h. Then supernatants and detached cells were collected and centrifuged, and the pellet was further washed with ice-cold PBS. 2×10^6 cells in 100 μl PBS were s.c. injected to the left flank of immunocompetent C57BL/6J mice (day −7). PBS was injected as a negative control. One week later, all mice were confirmed tumor-free in the vaccination flank and living cancer cells (2×10^5 cells per mouse for MCA205 cells) were injected in the right flank of vaccinated mice (day 0). Corticosterone and neutralizing anti-DBI monoclonal antibody were continually administrated throughout the experiment. Tumor growth was regularly monitored for the following weeks.
After the first week of treatment, the animals were subcutaneously (s.c.) injected with mitoxantrone (MTX)-treated MCA205 fibrosarcoma cells, knowing that MTX-induces ICD and that MTX-treated cancer cells induce a protective anti-cancer immune response that suppresses, delays or reduces the growth of tumors that would grow in naïve mice after injection of live, untreated MCA205 fibrosarcoma cell. [Panaretakis T. et al., Mechanisms of pre-apoptotic calreticulin exposure in immunogenic cell death, EMNO J, 2009, 28 (5), pp. 578-590.]

[4] = test system: TC1 NSCLC cells; assay: Orthotopic TC1 Luc lung cancer model (bioluminescence imaging); assay type: in vivo, C57BL/6J mice; details: corticosterone in drinking water + OXA + anti-PD1
Procedure: TC-1—To establish the orthotopic TC1 model, wild type TC1 Luc cells (5×10^5 in 100 μL PBS) were intravenously injected to wild type C57BL/6J mice. Tumor incidence and development were monitored by in vivo photonic imaging of tumor cells' luciferase activity. About 7 days after injection, tumor incidence in the lung was detected at an exposure time of 4 min, and mice were randomized according to quantified tumor sizes and assigned to different groups for treatment as described below. Anti-DBI or isotype control antibody was intraperitoneally (i.p.) injected on day 9, at the dose of 2.5 mg/kg body weight, and on day 10, then maintained every other day until day 18. […]
Next, the positive effects of anti-ACBP/DBI mAb on chemo-immunotherapy in another model, namely non-small cell lung cancers (NSCLC) were confirmed. TC1 NSCLC cells expressing luciferase injected intravenously (i.v.) into syngeneic immunocompetent C57BL/6J mice form orthotopic lung cancers that can be monitored by bioluminescence imaging. […] From day 9 post-inoculation of TC1 cells, NSCLC-bearing mice were periodically i.p. injected with anti-ACBP/DBI mAb (or an isotype control mAb) and then were treated on day 11 post-inoculation with OXA (i.p. once) and anti-PD1 mAb (injected i.p. on days 19, 23 and 27 post-TC1 injection) (FIG. 4A) and tumor progression was determined by bioluminescence imaging (FIG. 4B). […]

| Structure (SMILES) | viability (CCK-8) [1] | tumor growth (effect of anti-PD1) ([2]; CORT in drinking water + anti-PD1) | animal survival (efficacy of anti-PD1) ([2]; corticotherapy + anti-PD1) | vaccination effect [3] | chemo-immunotherapeutic effect (tumor size by bioluminescence) [4] |
| --- | --- | --- | --- | --- | --- |
| CC(C)Oc1ccc(C(=O)Cn2ccnc2)cc1-n1c(CN2CCN(C(=O)COc3ccc(Cl)cc3)CC2)nc2ccccc2c1=O [IKE, imidazole ketone erastin] | particularly vulnerable to losing their viability |  |  |  |  |
| CCCCC/C=C\C/C=C\CCCCCCCC(=O)O [LA, linoleic acid] | particularly vulnerable to losing their viability |  |  |  |  |
| COC(=O)c1ccc([C@@H]2c3[nH]c4ccccc4c3C[C@@H](C(=O)OC)N2C(=O)CCl)cc1 [RSL3] | particularly vulnerable to losing their viability |  |  |  |  |
| C[C@]12C[C@H](O)[C@H]3[C@@H](CCC4=CC(=O)CC[C@@]43C)[C@@H]1CC[C@@H]2C(=O)CO [corticosterone] |  | lost | loss | reduced this vaccination effect | strongly interfered |
